This test concerns the target T1, human Nav1.8 channels (Homo sapiens, UniProt Q9Y5Y9).
T1 construct: expressed in transfected cells
The experiment in a line: Nav1.8 Qube automated patch-clamp assay. The test is classed as cell-based. As to conditions: human Nav1.8 stably expressed in HEK 293 cells; whole-cell voltage clamp, room temperature; resting or inactivated state not specified; read-out: IC50 values (nM) for Examples in the Nav1.8 Qube Assay. In a few lines:
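Whole-cell patch clamp at room temperature on HEK293 cells stably expressing human Nav1.8. A 1 Hz train of ten 20 ms pulses to 10 mV from −90 mV holding, with −67 mV repolarization, was applied; first- and tenth-pulse peak currents gave resting and inactivated-state IC50s by Hill fitting.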
T1 sequence (Q9Y5Y9 whole entry): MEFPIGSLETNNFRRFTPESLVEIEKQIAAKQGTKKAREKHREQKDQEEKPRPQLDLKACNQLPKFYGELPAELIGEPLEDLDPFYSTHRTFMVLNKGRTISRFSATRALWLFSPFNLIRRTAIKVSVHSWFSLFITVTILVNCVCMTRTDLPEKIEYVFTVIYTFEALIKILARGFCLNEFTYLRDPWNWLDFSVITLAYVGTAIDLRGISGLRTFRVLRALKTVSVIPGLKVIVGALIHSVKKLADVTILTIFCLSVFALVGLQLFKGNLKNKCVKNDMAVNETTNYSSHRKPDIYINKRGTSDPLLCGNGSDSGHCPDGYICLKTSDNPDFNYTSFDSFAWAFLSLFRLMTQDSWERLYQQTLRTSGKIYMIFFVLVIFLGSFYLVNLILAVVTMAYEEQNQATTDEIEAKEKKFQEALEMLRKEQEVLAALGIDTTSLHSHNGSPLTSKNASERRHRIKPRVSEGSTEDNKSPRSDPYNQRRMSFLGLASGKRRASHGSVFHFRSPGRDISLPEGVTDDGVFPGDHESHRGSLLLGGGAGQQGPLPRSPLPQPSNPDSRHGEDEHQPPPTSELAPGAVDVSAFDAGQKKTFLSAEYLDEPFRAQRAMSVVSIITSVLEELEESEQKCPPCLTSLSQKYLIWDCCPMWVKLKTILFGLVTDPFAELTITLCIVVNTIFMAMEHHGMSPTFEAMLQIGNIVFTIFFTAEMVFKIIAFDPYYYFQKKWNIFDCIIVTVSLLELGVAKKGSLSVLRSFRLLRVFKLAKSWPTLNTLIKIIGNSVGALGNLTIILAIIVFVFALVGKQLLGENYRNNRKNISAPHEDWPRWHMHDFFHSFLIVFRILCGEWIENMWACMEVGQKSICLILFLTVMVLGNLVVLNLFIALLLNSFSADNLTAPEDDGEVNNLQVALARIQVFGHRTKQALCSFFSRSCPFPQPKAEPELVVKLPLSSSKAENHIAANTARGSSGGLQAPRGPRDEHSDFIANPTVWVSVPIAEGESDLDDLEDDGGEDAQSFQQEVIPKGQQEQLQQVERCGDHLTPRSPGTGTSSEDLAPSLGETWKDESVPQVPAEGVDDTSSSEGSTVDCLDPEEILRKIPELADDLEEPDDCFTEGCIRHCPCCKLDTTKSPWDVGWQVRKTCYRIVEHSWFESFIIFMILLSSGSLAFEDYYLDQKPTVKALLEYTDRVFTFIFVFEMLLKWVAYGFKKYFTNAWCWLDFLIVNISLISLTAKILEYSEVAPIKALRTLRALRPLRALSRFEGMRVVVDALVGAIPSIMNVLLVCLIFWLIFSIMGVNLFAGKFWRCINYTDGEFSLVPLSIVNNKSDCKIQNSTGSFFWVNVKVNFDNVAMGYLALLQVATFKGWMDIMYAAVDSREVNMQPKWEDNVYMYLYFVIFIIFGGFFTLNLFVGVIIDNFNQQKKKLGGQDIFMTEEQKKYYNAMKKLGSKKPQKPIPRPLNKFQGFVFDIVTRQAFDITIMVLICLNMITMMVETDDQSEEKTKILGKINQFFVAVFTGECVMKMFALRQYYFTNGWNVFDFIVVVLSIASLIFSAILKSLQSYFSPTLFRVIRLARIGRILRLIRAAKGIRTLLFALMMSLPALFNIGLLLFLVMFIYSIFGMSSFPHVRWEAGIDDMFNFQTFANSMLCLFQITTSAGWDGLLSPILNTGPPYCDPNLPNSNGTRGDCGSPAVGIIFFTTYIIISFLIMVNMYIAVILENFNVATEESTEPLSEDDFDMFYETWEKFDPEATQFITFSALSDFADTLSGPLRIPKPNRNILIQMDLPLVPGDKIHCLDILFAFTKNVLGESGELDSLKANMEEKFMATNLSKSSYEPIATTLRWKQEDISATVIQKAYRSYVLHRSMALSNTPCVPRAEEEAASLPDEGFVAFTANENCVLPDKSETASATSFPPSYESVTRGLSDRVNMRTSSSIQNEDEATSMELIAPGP
`NS(=O)(=O)c1cc(NC(=O)c2cc(C(F)(F)F)cnc2N2CCC3C(C2)C3(F)F)ccn1` (single isomer, unassigned) [Example 69, 2-((1S,6S or 1R,6R)-7,7-difluoro-3-azabicyclo[4.1.0]heptan-3-yl)-N-(2-sulfamoylpyridin-4-yl)-5-(trifluoromethyl)nicotinamide]: the IC50 was found to be 82 nM. As for `NS(=O)(=O)c1cc(NC(=O)c2cc(C(F)(F)F)cnc2N2CCOC(C(F)(F)F)CC2)ccn1` (single isomer, unassigned) [Example 118, (R or S)-N-(2-sulfamoylpyridin-4-yl)-5-(trifluoromethyl)-2-(7-(trifluoromethyl)-1,4-oxazepan-4-yl)nicotinamide], the figure is 54 nM; as for `NS(=O)(=O)c1cc(NC(=O)c2cc(C(F)(F)F)cnc2N2CC(C(F)(F)F)C2)ccn1` [Example 93, N-(2-sulfamoyl-4-pyridyl)-5-(trifluoromethyl)-2-[3-(trifluoromethyl)azetidin-1-yl]pyridine-3-carboxamide], 707 nM; as for `CC1CN(c2ncc(C(F)(F)F)cc2C(=O)Nc2ccnc(C(N)=O)c2)CCC1(F)F` (single isomer, unassigned) [Example 158, N-(2-carbamoyl-4-pyridyl)-2-[(3S or 3R)-4,4-difluoro-3-methyl-1-piperidyl]-5-(trifluoromethyl)-pyridine-3-carboxamide], 41 nM. As for `CC1CN(c2nc(C(F)(F)F)ccc2C(=O)Nc2ccnc(S(N)(=O)=O)c2)CCC1(F)F` (single isomer, unassigned) [Example 162, (R or S)-2-(4,4-difluoro-3-methylpiperidin-1-yl)-N-(2-sulfamoylpyridin-4-yl)-6-(trifluoromethyl)nicotinamide], the IC50 worked out at 22 nM. The figure for `NS(=O)(=O)c1cc(NC(=O)c2cc(C(F)(F)F)cnc2N2CCC(Oc3cccc(C(F)(F)F)c3)CC2)ccn1` [Example 98, N-(2-sulfamoyl-4-pyridyl)-5-(trifluoromethyl)-2-[4-[3-(trifluoromethyl)phenoxy]-1-piperidyl]pyridine-3-carboxamide] is 2370 nM; for `Cc1cncc(NC(=O)c2cc(C(F)(F)F)cnc2N2CCCCCC2)c1` [Example 195, 2-(azepan-1-yl)-N-(5-methyl-3-pyridyl)-5-(tri-fluoromethyl)-pyridine-3-carboxamide] it is 2770 nM. As for `NS(=O)(=O)c1cc(NC(=O)c2cc(C(F)(F)F)cnc2N2CCCC(C(F)(F)F)C2)ccn1` (stereo not shown) [Example 80, N-(2-sulfamoyl-4-pyridyl)-5-(trifluoromethyl)-2-[3-(trifluoromethyl)-1-piperidyl]pyridine-3-carboxamide], the figure is 31 nM.

For the compound `Cc1cc(Cl)nc(N2CCC(F)(F)CC2)c1C(=O)Nc1cncc(S(N)(=O)=O)c1` [Example 11, 6-chloro-2-(4,4-difluoropiperidin-1-yl)-4-methyl-N-(5-sulfamoylpyridin-3-yl)nicotinamide], the IC50 is 212 nM. The figure for `Cc1nc(N2CCCC(F)(F)CC2)c(C(=O)Nc2ccnc(S(N)(=O)=O)c2)cc1C#N` [Example 25, 5-cyano-2-(4,4-difluoroazepan-1-yl)-6-methyl-N-(2-sulfamoylpyridin-4-yl)nicotinamide] is 5.4 nM; for `CC1(C)CO[C@@H](C(F)(F)F)CN(c2ncc(C(F)(F)F)cc2C(=O)Nc2ccnc(S(N)(=O)=O)c2)C1` [Example 106, 2-[(2R)-6,6-dimethyl-2-(trifluoromethyl)-1,4-oxazepan-4-yl]-N-(2-sulfamoyl-4-pyridyl)-5-(trifluoromethyl)pyridine-3-carboxamide] it is 103 nM; for `NS(=O)(=O)c1cc(NC(=O)c2cc(C(F)(F)F)cnc2N2CC3CCC3(C(F)(F)F)C2)ccn1` (single isomer, unassigned) [Example 59, N-(2-sulfamoyl-4-pyridyl)-5-(trifluoromethyl)-2-[(1R,5R or 1S,5S)-1-(trifluoromethyl)-3-azabicyclo[3.2.0]heptan-3-yl]pyridine-3-carboxamide] it is 116 nM. The figure for `NS(=O)(=O)c1cc(NC(=O)c2cc(C(F)(F)F)cnc2N2C[C@H]3CC[C@@H](C2)C3(F)F)ccn1` [Example 63, 2-((1R,5S)-8,8-difluoro-3-azabicyclo[3.2.1]octan-3-yl)-N-(2-sulfamoylpyridin-4-yl)-5-(trifluoromethyl)nicotinamide] is 20 nM; for `COc1ccnc(N2CCC(F)(F)CC2)c1C(=O)Nc1ccnc(S(N)(=O)=O)c1` [Example 159, 2-(4,4-difluoropiperidin-1-yl)-4-methoxy-N-(2-sulfamoylpyridin-4-yl)nicotinamide] it is 1630 nM; for `Cc1nc(N2CCC3(CC2)CC3)c(C(=O)Nc2cc[nH]c(=O)c2)c(C)c1Cl` [Example 209, 5-chloro-4,6-dimethyl-N-(2-oxo-1,2-dihydropyridin-4-yl)-2-(6-azaspiro[2.5]octan-6-yl)nicotinamide] it is 12 nM. For the compound `C[C@@H]1CN(c2ncc(C(F)(F)F)cc2C(=O)Nc2ccnc(S(N)(=O)=O)c2)C[C@@H](C(F)(F)F)O1` [Example 102, 2-((2R,6S)-2-methyl-6-(trifluoromethyl)morpholino)-N-(2-sulfamoylpyridin-4-yl)-5-(trifluoromethyl)nicotinamide], the IC50 is 27 nM.

`CC1CN(c2ncc(C(F)(F)F)cc2C(=O)Nc2ccnc(S(N)(=O)=O)c2)CC(C)C1O` [Example 78, 2-[(3S,4r,5R)-4-hydroxy-3,5-dimethyl-1-piperidyl]-N-(2-sulfamoyl-4-pyridyl)-5-(trifluoromethyl)pyridine-3-carboxamide]: the IC50 came out at 5080 nM. As for `CC1(C)CN(c2ncc(C(F)(F)F)cc2C(=O)Nc2ccnc(S(N)(=O)=O)c2)CCO1` [Example 88, 2-(2,2-dimethylmorpholin-4-yl)-N-(2-sulfamoyl-4-pyridyl)-5-(trifluoromethyl)pyridine-3-carboxamide], the figure is 275 nM. As for `NS(=O)(=O)c1cc(NC(=O)c2cc(C3CC3)c(OC(F)(F)F)nc2N2CCC(F)(F)CC2)ccn1` [Example 182, 5-cyclopropyl-2-(4,4-difluoropiperidin-1-yl)-N-(2-sulfamoylpyridin-4-yl)-6-(trifluoromethoxy)nicotinamide], the figure is 62 nM; as for `NS(=O)(=O)c1cc(NC(=O)c2cc(C(F)(F)F)cnc2N2CCCCC2c2ccc(F)cc2)ccn1` (stereo not shown) [Example 95, 2-[2-(4-fluorophenyl)-1-piperidyl]-N-(2-sulfamoyl-4-pyridyl)-5-(trifluoromethyl)pyridine-3-carboxamide], 1420 nM. As for `C[C@@H]1CN(c2ncc(C(F)(F)F)cc2C(=O)Nc2ccnc(S(N)(=O)=O)c2)C[C@H](C)C1(F)F` [Example 52, 2-[(3S,5R)-4,4-difluoro-3,5-dimethyl-1-piperidyl]-N-(2-sulfamoyl-4-pyridyl)-5-(trifluoromethyl)pyridin-3-carboxamide], the IC50 worked out at 2.8 nM. The figure for `COc1ccc(C(=O)Nc2cncc(S(N)(=O)=O)c2)c(N2CCCC(F)(F)CC2)n1` [Example 192, 2-(4,4-difluoroazepan-1-yl)-6-methoxy-N-(5-sulfamoyl-3-pyridyl)pyridine-3-carboxamide] is 163 nM. In the case of `CC1(C)CN(c2ncc(C(F)(F)F)cc2C(=O)Nc2ccnc(S(N)(=O)=O)c2)CC(C(F)(F)F)O1` (single isomer, unassigned) [Example 135, (R or S)-2-(2,2-dimethyl-6-(trifluoromethyl)morpholino)-N-(2-sulfamoylpyridin-4-yl)-5-(trifluoromethyl)nicotinamide], the IC50 is 57 nM. As for `NS(=O)(=O)c1cc(NC(=O)c2cc(C(F)(F)F)cnc2N2C[C@H]3CC[C@H]3C2)ccn1` [Example 68, 2-((1R,5S)-3-azabicyclo[3.2.0]heptan-3-yl)-N-(2-sulfamoylpyridin-4-yl)-5-(trifluoromethyl)nicotinamide], the figure is 29 nM; as for `NS(=O)(=O)c1cccc(NC(=O)c2cc(C(F)(F)F)cnc2N2CCCCCC2)n1` [Example 141, 2-(azepan-1-yl)-N-(6-sulfamoyl-2-pyridyl)-5-(trifluoromethyl)pyridine-3-carboxamide], 245 nM.

With `NS(=O)(=O)c1cc(NC(=O)c2cc(C(F)(F)F)cnc2N2CCCC(Cl)(Cl)CC2)ccn1` [Example 51, 2-(4,4-Dichloroazepan-1-yl)-N-(2-sulfamoylpyridin-4-yl)-5-(trifluoromethyl)nicotinamide], the IC50 was determined as 6.6 nM.

For `CS(=O)(=O)n1ncc(NC(=O)c2cc(C(F)(F)F)cnc2N2CCCC(F)(F)CC2)c1C1CC1` [Example 37, N-[5-cyclopropyl-1-(methylsulfonyl)-1H-pyrazol-4-yl]-2-(4,4-difluoroazepan-1-yl)-5-(trifluoromethyl)pyridin-3-carboxamide], the IC50 was found to be 1250 nM. As for `NS(=O)(=O)c1cc(NC(=O)c2cc(-n3cccn3)cnc2N2CCC(F)(F)CC2)ccn1` [Example 207, 2-(4,4-difluoropiperidin-1-yl)-5-(1H-pyrazol-1-yl)-N-(2-sulfamoylpyridin-4-yl)nicotinamide], the figure is 1080 nM; as for `NS(=O)(=O)c1cc(NC(=O)c2cc(C#CC3CC3)c(C(F)(F)F)nc2N2CCC(F)(F)CC2)ccn1` [Example 44, 5-(cyclopropylethynyl)-2-(4,4-difluoropiperidin-1-yl)-N-(2-sulfamoylpyridin-4-yl)-6-(trifluoromethyl)nicotinamide], 59 nM. The figure for `O=C(Nc1ccc2ncc(Br)n2c1)c1cc(C(F)(F)F)cnc1N1CCCCCC1` [Example 199, 2-(azepan-1-yl)-N-(3-bromoimidazo[1,2-a]pyridin-6-yl)-5-(trifluoromethyl)-pyridine-3-carboxamide] is 5070 nM; for `CC1CN(c2ncc(C(F)(F)F)cc2C(=O)Nc2ccnc(S(C)(=O)=O)c2)CCC1(F)F` (single isomer, unassigned) [Example 148, 2-[(3R or 3S)-4,4-difluoro-3-methyl-1-piperidyl]-N-(2-methylsulfonyl-4-pyridyl)-5-(trifluoro-methyl)pyridine-3-carboxamide] it is 26 nM.
